For one experiment, the target named is T1, PI3K p110β (Homo sapiens, UniProt P42338).
T1 construct: gene PIK3CB
In words: PI3 Kinase Activity/Inhibitor Assay Kit (Millipore […]-493), competitive biotinylated-PIP3/GRP1 ELISA, PIP2 substrate. It is filed as biochemical.

Another experiment concerns the target T2, PI3K p110α (Homo sapiens, UniProt P42336).
T2 construct: gene PIK3CA
The description is as above. It is filed as biochemical.

T1 sequence (P42338 whole entry): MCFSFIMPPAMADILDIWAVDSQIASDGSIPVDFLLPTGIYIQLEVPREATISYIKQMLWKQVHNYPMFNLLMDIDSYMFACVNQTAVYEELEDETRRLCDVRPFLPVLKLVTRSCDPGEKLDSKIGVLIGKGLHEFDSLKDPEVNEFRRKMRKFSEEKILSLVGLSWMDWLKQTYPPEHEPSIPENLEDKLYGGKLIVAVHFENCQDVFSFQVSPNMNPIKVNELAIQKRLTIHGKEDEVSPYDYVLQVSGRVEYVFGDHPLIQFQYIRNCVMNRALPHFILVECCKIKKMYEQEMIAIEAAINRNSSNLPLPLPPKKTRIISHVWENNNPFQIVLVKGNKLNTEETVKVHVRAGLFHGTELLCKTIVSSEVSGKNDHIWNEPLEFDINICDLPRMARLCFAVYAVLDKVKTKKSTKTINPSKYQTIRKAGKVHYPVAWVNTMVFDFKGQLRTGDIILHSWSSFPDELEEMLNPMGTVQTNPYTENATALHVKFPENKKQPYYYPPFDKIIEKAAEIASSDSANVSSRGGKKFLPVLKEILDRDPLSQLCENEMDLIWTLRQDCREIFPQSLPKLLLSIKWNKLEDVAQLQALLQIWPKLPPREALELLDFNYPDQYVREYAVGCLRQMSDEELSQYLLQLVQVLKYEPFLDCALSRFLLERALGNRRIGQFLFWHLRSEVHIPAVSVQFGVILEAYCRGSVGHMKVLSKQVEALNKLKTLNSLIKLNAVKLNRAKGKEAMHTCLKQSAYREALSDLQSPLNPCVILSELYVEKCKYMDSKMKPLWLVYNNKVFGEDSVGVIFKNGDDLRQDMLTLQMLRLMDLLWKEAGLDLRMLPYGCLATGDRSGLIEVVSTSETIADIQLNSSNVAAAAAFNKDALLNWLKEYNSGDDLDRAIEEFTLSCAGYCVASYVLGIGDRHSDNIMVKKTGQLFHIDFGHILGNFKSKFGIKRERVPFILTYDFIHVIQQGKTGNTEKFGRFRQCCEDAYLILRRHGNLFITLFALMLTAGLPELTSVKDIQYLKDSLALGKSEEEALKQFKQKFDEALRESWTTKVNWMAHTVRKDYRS
T2 sequence (P42336 whole entry): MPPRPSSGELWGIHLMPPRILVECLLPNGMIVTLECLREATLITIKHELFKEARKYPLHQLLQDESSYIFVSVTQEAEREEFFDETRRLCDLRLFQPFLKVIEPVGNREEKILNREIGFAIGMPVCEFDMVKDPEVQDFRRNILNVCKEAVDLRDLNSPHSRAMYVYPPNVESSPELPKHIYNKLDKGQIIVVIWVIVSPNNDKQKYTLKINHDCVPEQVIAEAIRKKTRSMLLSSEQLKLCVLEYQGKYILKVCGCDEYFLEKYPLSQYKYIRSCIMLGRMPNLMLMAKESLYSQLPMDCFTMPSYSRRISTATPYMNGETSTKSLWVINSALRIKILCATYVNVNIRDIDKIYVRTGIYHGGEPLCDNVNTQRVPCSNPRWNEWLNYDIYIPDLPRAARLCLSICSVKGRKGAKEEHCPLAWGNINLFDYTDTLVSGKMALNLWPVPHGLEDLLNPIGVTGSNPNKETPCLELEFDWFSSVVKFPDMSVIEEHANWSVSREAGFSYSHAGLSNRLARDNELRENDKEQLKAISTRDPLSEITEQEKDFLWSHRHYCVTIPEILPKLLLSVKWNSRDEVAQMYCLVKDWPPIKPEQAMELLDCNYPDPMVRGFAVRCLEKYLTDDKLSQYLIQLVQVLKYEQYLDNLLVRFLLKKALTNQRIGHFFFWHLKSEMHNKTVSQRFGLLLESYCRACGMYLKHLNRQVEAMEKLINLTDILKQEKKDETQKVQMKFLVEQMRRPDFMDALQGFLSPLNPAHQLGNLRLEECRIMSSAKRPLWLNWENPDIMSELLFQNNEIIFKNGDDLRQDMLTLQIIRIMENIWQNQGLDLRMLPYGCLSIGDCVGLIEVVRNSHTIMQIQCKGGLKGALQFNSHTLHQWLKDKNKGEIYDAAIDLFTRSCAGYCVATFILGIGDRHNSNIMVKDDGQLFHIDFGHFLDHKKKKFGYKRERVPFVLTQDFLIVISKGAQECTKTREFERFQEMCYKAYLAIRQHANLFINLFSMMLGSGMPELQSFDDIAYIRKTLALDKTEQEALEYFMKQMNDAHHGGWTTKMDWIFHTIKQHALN

In the case of `O[C@H]1[C@H](O)[C@@H](O)[C@H](O)[C@@H](O)[C@H]1O` [MI, Myo-inositol], the IC50 at PI3K p110β amounted to 21.7 µM; on PI3K p110α it was 90.2 µM.

The IC50 is the concentration needed to halve the response being measured. A higher IC50 goes with lower potency.
